Patent US6461997B1, “Triazole sulfones having herbicidal activity” (Monsanto Technology LLC, priority 1999, dated 2002)

Columns and labels:
STEME (common chickweed) [1] = assay: Pre-plant incorporated (PPI) herbicidal activity, cool season; type: in vivo, Stellaria media; settings: pre-plant incorporated; lowest tested rate with 80% or greater inhibition; about 14 days
Method in brief: (§1)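 Cool-season species were held at 18/13° C in greenhouse or growth chamber, warm-season ones at 30/21° C in greenhouse. Test compound had been sprayed onto cover soil, mixed, and applied over the seeds. Percent inhibition against untreated pots was recorded about 14 days post-treatment.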

corn (ZEAMX) = assay: Selectivity test, PPI, warm season crop; type: in vivo, Zea mays; settings: PPI application
Method in brief: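 Percent inhibition relative to untreated controls, assessed roughly 14 days post-planting. Seeds were covered with a soil layer into which solvent-borne compound had been sprayed and mixed. Plants were then grown at 30/21° C. (warm season) or 18/13° C. (cool season) day/night regimes.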

[2] = test system: LAMPU (purple deadnettle); assay: Pre-emergence herbicidal activity, cool season; type: in vivo, Lamium purpureum; settings: lowest tested rate with 80% or greater inhibition; rates 300, 100, 30, 10 g/ha; about 14 days
Method in brief: (§2)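 GR80 values derive from percent inhibition relative to untreated plants, read roughly 14 days after sowing and pre-emergence soil-surface treatment (compound in 50:50 acetone/water; rates typically 10, 30, 100, 300 g/ha). Warm-season weeds grew at 30/21° C day/night, cool-season ones at 18/13° C; an asterisk marks activity without reaching 80% at the highest rate.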

[3] = test system: SORHA (johnsongrass (seedling)); assay: Pre-plant incorporated (PPI) herbicidal activity, warm season; type: in vivo, Sorghum halepense; settings: for Percent inhibition SORHA: PPI application
Method in brief: as §1

PANDI (fall panicum) = assay: Pre-emergence herbicidal activity, warm season; type: in vivo, Panicum dichotomiflorum; settings: GR80 = lowest tested rate (300, 100, 30, 10 g/ha) with 80% or greater inhibition; approx. 14 days after treating; 30/21° C.
Method in brief: (§3)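 Activity is expressed as the rate giving 80% inhibition, with 300, 100, 30 and 10 g/ha typically tested. An asterisk marks activity short of 80% at the top rate. Warm-season grasses were held at 30/21 °C; cool-season blackgrass and wild buckwheat at 18/13 °C; scoring at about 14 days.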

ECHCG (barnyardgrass) = assay: Pre-emergence herbicidal activity, warm season; type: in vivo, Echinochloa crus-galli; settings: GR80 = lowest tested rate (300, 100, 30, 10 g/ha) with 80% or greater inhibition; approx. 14 days after treating; 30/21° C.
Method in brief: as §3

SASKR (russian thistle) = assay: Pre-emergence herbicidal activity, cool season; type: in vivo, Salsola kali; settings: lowest tested rate with 80% or greater inhibition; rates 300, 100, 30, 10 g/ha; about 14 days
Method in brief: as §2

[4] = test system: PANMI (wild proso millet); assay: Pre-plant incorporated (PPI) herbicidal activity, warm season; type: in vivo, Panicum miliaceum; settings: for Percent inhibition PANMI: PPI application
Method in brief: as §1

SORVU (shattercane) = assay: as above; type: in vivo, Sorghum vulgare; settings: for Percent inhibition SORVU: PPI application
Method in brief: as §1

STEME (common chickweed) [5] = assay: Pre-emergence herbicidal activity, cool season; type: in vivo, Stellaria media; settings: lowest tested rate with 80% or greater inhibition; rates 300, 100, 30, 10 g/ha; about 14 days
Method in brief: as §2

[6] = test system: CHEAL (common lambsquarters); assay: Pre-emergence herbicidal activity, warm season; type: in vivo, Chenopodium album; settings: GR80 = lowest tested rate (300, 100, 30, 10 g/ha) with 80% or greater inhibition; approx. 14 days after treating; 30/21° C.
Method in brief: as §2

ALOMY (blackgrass) = assay: Pre-plant incorporated (PPI) herbicidal activity, cool season; type: in vivo, Alopecurus myosuroides; settings: for Percent inhibition ALOMY: weed, PPI application
Method in brief: as §1

[7] = pre-plant incorporated, lowest tested rate with 80% or greater inhibition, about 14 days

## C=C(CC(F)(F)S(=O)(=O)c1ncn(C(=O)N(CC)CC)n1)C[Si](C)(C)C [Example 20]
STEME (common chickweed) [1]
  PPI activity GR80, STEME: * (activity observed, at least at highest rate, but <80% inhibition)
Corn (ZEAMX); 10 g/ha
  Percent inhibition ZEAMX: 0%
Corn (ZEAMX); 30 g/ha
  Percent inhibition ZEAMX: 0%
Corn (ZEAMX); 100 g/ha
  Percent inhibition ZEAMX: 0%
Corn (ZEAMX); 300 g/ha
  Percent inhibition ZEAMX: 20%
Corn (ZEAMX); 900 g/ha
  Percent inhibition ZEAMX: 40%
[2]
  Pre-emergence activity GR80, LAMPU: 100 g/ha
[3]; 30 g/ha
  Percent inhibition SORHA: 0%
[3]; 100 g/ha
  Percent inhibition SORHA: 20%
[3]; 300 g/ha
  Percent inhibition SORHA: 80%
[3]; 900 g/ha
  Percent inhibition SORHA: 80%
[3]; [7]
  PPI activity GR80, SORHA: 100 g/ha
PANDI (fall panicum)
  Pre-emergence activity (GR80) PANDI: 300 g/ha
ECHCG (barnyardgrass)
  Pre-emergence activity (GR80) ECHCG: 300 g/ha
SASKR (russian thistle)
  Pre-emergence activity GR80, SASKR: [empty]
[4]; 10 g/ha
  Percent inhibition PANMI: 0%
[4]; 30 g/ha
  Percent inhibition PANMI: 20%
[4]; 100 g/ha
  Percent inhibition PANMI: 100%
[4]; 300 g/ha
  Percent inhibition PANMI: 65%
[4]; 900 g/ha
  Percent inhibition PANMI: 100%
[4]; [7]
  PPI activity GR80, PANMI: 100 g/ha
SORVU (shattercane); 10 g/ha
  Percent inhibition SORVU: 0%
SORVU (shattercane); 30 g/ha
  Percent inhibition SORVU: 0%
SORVU (shattercane); 100 g/ha
  Percent inhibition SORVU: 30%
SORVU (shattercane); 300 g/ha
  Percent inhibition SORVU: 40%
SORVU (shattercane); 900 g/ha
  Percent inhibition SORVU: 100%
SORVU (shattercane); [7]
  PPI activity GR80, SORVU: * (activity observed, at least at highest rate, but <80% inhibition)
STEME (common chickweed) [5]
  Pre-emergence activity GR80, STEME: [empty]
[6]
  Pre-emergence activity (GR80) CHEAL: 300 g/ha
ALOMY (blackgrass); [7]
  PPI activity GR80, ALOMY: 100 g/ha
ALOMY (blackgrass); 10 g/ha
  Percent inhibition ALOMY: 0%
ALOMY (blackgrass); 30 g/ha
  Percent inhibition ALOMY: 0%
ALOMY (blackgrass); 100 g/ha
  Percent inhibition ALOMY: 20%
ALOMY (blackgrass); 300 g/ha
  Percent inhibition ALOMY: 50%
ALOMY (blackgrass); 900 g/ha
  Percent inhibition ALOMY: 100%
